Data taken from ChEMBL document CHEMBL1155305, “Discovery of a new series of monoamine reuptake inhibitors, the 1-amino-3-(1H-indol-1-yl)-3-phenylpropan-2-ols” (Bioorg Med Chem Lett, 2009).
Activity calls are given as the source filed them. The rule behind the calls is not given here.

What was measured:
[1] = biological target: Sodium-dependent serotonin transporter (Homo sapiens, UniProt P31645); format: cell-based, JAR
Description: Inhibition of serotonin uptake at human SERT expressed in JAR cells

[2] = biological target: Sodium-dependent dopamine transporter (Homo sapiens) (UniProt Q01959); assay: Displacement of [3H]WIN-35428 from human recombinant DAT expressed in CHO cells at 1 uM; format: cell-based
MDCK-Net6 = assay: Selectivity index, ratio of IC50 for human SERT to IC50 for human NET uptake in MDCK-Net6 cell; format: cell-based
[3] = biological target: T1, Sodium-dependent noradrenaline transporter (Homo sapiens, UniProt P23975)
[4] = biological target: T1, Sodium-dependent noradrenaline transporter; assay: Inhibition of norepinephrine reuptake at human NET expressed in MDCK-Net6 cells at 1000 nM; format: cell-based
[5] = Half life in dog liver microsomes at 1 uM; format: ADME, Canis lupus familiaris, Microsome
[6] = Half life in rat liver microsomes at 1 uM; format: ADME, Microsome
[7] = Membrane permeability by PAMPA assay; format: ADME; conditions: read-out: permeability
CYP3A4 = CYP3A4 (Homo sapiens, UniProt P08684); assay: Inhibition of CYP3A4 at 3 uM; format: ADME
[8] = Aqueous solubility at pH 7.4; format: physicochemical
[9] = Half life in human liver microsomes at 1 uM; format: ADME, Microsome
CYP2D6 = CYP2D6 (Homo sapiens, UniProt P10635); assay: Inhibition of CYP2D6 at 3 uM; format: ADME
CYP2C9 = CYP2C9 (Homo sapiens, UniProt P11712); assay: Inhibition of CYP2C9 at 3 uM; format: ADME
[10] = Half life in monkey liver microsomes at 1 uM; format: ADME, Macaca mulatta, Microsome; conditions: rhesus monkey
[11] = Binding affinity to alpha2 adrenergic receptor
[12] = biological target: 5-hydroxytryptamine receptor 2A (Homo sapiens) (UniProt P28223); assay: Binding affinity to 5-HT2A receptor
[13] = biological target: T2, 5-hydroxytryptamine receptor 1A (Homo sapiens) (UniProt P08908); assay: Binding affinity to 5-HT1A receptor
T2 sequence (whole entry): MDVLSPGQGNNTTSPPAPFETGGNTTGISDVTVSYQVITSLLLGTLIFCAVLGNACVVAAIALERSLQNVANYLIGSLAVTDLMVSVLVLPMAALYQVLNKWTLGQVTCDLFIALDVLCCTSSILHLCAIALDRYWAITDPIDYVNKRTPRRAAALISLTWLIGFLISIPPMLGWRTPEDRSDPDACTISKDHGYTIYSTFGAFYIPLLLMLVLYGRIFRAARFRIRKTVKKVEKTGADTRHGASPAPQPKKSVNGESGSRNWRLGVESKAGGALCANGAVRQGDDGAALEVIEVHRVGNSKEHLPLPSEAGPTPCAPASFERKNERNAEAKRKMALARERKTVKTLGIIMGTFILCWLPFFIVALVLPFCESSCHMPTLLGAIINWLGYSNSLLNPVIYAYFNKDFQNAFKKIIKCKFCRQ

[14] = Binding affinity to alpha1 adrenergic receptor

T1 sequence (P23975 whole entry): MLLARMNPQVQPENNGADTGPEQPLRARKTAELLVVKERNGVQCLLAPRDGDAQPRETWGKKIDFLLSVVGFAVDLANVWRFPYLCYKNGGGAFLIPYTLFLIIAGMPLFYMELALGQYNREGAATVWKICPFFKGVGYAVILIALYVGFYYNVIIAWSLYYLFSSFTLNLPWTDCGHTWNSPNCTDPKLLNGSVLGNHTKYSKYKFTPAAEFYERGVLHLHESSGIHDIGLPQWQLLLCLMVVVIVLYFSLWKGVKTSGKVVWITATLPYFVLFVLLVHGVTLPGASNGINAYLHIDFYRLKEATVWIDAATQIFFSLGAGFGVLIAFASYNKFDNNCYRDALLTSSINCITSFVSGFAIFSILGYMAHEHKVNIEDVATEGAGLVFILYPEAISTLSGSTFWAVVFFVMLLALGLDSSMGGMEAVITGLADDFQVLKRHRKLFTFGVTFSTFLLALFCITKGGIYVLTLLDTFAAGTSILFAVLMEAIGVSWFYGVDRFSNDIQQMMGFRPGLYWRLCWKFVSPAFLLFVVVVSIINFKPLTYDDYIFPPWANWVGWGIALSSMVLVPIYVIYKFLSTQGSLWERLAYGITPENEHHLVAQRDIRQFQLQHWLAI
Sequence of Sodium-dependent dopamine transporter (Homo sapiens) (Q01959 whole entry): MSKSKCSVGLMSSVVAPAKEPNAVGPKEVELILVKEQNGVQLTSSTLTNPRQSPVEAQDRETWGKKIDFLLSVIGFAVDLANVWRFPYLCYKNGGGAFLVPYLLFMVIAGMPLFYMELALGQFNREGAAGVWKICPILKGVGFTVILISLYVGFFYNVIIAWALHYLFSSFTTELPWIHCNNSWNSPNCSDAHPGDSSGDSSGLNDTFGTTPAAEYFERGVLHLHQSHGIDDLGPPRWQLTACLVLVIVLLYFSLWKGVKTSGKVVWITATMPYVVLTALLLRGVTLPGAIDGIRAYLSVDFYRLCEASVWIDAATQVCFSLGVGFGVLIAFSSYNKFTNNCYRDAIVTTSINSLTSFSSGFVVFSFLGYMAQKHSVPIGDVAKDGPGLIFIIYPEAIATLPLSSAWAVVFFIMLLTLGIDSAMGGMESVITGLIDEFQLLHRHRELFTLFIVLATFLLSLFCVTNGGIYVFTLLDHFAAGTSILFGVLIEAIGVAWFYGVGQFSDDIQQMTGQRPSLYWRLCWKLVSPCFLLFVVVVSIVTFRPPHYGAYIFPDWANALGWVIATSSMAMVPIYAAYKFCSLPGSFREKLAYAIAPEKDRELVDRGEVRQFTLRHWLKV
Sequence of Sodium-dependent serotonin transporter (P31645 whole entry): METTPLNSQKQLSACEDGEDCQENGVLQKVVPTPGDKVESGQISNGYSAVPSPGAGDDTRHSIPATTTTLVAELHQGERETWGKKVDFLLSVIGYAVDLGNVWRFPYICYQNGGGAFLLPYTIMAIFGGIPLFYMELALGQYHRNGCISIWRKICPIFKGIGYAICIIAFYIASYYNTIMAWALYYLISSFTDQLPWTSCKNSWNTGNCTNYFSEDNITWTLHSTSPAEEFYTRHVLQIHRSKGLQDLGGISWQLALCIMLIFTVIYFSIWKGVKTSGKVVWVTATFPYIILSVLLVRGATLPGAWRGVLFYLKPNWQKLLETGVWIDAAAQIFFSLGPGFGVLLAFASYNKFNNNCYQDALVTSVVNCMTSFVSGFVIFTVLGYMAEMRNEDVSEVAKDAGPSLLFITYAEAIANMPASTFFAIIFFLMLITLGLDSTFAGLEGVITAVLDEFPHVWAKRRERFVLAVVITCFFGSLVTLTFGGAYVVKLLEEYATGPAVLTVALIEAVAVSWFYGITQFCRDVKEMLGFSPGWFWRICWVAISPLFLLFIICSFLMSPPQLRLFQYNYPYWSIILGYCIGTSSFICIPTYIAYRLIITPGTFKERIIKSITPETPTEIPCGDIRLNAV
Sequence of CYP2C9 (P11712 whole entry): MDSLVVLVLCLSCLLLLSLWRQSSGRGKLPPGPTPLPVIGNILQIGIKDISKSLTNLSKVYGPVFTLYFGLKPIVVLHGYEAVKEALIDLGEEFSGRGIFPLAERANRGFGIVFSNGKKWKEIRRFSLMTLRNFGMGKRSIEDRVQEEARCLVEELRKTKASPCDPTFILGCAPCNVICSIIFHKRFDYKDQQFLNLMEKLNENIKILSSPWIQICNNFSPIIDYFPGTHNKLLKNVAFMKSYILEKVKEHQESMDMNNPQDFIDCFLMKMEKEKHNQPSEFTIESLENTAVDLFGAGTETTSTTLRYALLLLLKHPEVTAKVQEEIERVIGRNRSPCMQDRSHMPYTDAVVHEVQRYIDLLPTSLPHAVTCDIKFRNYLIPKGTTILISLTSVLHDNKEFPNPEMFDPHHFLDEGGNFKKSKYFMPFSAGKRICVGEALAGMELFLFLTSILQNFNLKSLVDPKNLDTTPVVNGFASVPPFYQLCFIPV
Sequence of 5-hydroxytryptamine receptor 2A (Homo sapiens) (P28223 whole entry): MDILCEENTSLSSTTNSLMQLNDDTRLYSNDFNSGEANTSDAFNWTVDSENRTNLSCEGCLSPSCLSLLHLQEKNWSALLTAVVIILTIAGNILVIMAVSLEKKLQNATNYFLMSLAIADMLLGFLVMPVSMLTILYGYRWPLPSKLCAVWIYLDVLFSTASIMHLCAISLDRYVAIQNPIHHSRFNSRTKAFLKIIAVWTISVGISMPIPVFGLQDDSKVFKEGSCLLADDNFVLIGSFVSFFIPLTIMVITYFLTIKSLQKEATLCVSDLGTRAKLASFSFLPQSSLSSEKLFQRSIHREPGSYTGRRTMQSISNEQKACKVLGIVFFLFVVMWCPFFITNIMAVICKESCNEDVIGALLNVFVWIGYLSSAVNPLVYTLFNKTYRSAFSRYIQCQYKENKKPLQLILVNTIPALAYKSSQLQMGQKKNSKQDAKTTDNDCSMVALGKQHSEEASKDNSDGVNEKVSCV
Sequence of CYP2D6 (P10635 whole entry): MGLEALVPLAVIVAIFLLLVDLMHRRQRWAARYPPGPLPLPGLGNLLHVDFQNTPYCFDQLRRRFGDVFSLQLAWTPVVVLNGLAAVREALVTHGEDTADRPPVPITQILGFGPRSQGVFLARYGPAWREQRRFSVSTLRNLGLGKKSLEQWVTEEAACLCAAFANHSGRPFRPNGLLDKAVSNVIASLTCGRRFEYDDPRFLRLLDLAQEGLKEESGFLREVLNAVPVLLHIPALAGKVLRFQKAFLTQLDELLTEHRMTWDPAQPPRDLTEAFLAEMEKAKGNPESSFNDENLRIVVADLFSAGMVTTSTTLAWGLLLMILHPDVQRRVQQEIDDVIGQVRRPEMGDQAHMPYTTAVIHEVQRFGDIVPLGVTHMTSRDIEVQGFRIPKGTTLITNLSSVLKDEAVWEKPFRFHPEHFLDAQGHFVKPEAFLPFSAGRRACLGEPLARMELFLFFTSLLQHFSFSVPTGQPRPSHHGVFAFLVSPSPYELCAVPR
Sequence of CYP3A4 (P08684 whole entry): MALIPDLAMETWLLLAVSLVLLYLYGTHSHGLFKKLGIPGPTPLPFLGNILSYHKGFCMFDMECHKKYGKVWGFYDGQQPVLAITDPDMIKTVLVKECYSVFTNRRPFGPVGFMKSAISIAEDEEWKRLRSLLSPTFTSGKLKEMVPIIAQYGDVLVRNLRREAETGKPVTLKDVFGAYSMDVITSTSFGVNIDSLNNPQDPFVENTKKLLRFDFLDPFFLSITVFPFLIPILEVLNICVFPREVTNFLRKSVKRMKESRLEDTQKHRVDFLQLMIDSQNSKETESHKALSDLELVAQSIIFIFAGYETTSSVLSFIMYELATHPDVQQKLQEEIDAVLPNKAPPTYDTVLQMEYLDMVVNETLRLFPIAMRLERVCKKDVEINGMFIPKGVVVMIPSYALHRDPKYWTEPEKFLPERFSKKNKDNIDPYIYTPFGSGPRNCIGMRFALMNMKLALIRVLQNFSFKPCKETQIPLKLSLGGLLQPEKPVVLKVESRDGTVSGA

Structure (SMILES)	IC50 [1]	inhibition [2]	inhibition [4]	other results
CNC[C@@H](O)[C@@H](c1ccccc1)n1ccc2ccccc21	161 nM	31%	–	–
CNC[C@H](O)[C@H](c1ccccc1)n1ccc2cc(F)ccc21 (racemic)	95 nM	–	–	Ratio IC50 (MDCK-Net6): 1; IC50 [3]: 118 nM
CN1CCN(C[C@H](O)[C@H](c2ccccc2)n2ccc3ccccc32)CC1 (racemic)	–	–	5%	–
O[C@@H](CN1CCNCC1)[C@H](c1ccccc1)n1ccc2ccccc21 (racemic)	–	–	34%	–
NC[C@H](O)[C@H](c1ccccc1)n1ccc2ccccc21 (racemic)	50 nM	7%	–	Ratio IC50 (MDCK-Net6): 0.1
CNC[C@H](O)[C@H](c1ccccc1)n1cc(C)c2ccccc21 (racemic)	251 nM	0%	–	–
CNC[C@@H](O)[C@H](c1ccccc1)n1ccc2ccccc21 [listing 1 of 2 here]	358 nM	–	–	half-life at 1 µM [5]: 15.9 min; half-life at 1 µM [6]: 9.8 min; Papp [7]: 4.6 ×10⁻⁶ cm/s; inhibition at 3 µM (CYP3A4): < 20%; solubility [8]: > 50 µg/mL; half-life at 1 µM [9]: > 60 min; inhibition at 3 µM (CYP2D6): < 20%; inhibition at 3 µM (CYP2C9): < 20%; half-life at 1 µM [10]: 9.7 min
CNC[C@H](O)[C@H](c1ccccc1)n1ccc2cc(Cl)ccc21 (racemic)	10 nM	–	–	Ratio IC50 (MDCK-Net6): 0.2; IC50 [3]: 49 nM
CNC[C@H](O)[C@H](c1ccccc1)n1ccc2cc(OC)ccc21 (racemic)	31 nM	2%	–	Ratio IC50 (MDCK-Net6): 0.1; IC50 [3]: 230 nM
CC(C)NC[C@H](O)[C@H](c1ccccc1)n1ccc2ccccc21 (racemic)	–	–	13%	–
CCN(C)C[C@H](O)[C@H](c1ccccc1)n1ccc2ccccc21 (racemic)	–	–	38%	–
NC[C@H](O)[C@H](c1ccccc1)n1ccc2cc(F)ccc21 (racemic)	–	–	32%	–
CCNC[C@H](O)[C@H](c1ccccc1)n1cc(C)c2ccccc21 (racemic)	2200 nM	0%	–	Ratio IC50 (MDCK-Net6): 2; IC50 [3]: 1100 nM
OC1(c2ccc(Cl)cc2)c2ccccc2C2=NCCN21 (stereo not given)	–	22.1%	–	–
CN(C)C[C@H](O)[C@H](c1ccccc1)n1ccc2ccccc21 (racemic)	–	–	25%	–
CNC[C@H](O)[C@@H](c1ccccc1)n1ccc2ccccc21 [listing 1 of 2 here]	144 nM	–	–	–

Structure (SMILES)	IC50 [1]	inhibition [2]	inhibition [4]	other results
CNC[C@H](O)[C@H](c1ccccc1)n1ccc2ccccc21	918 nM	0%	–	–
O[C@@H](CNCc1ccncc1)[C@H](c1ccccc1)n1ccc2ccccc21 (racemic)	–	–	24%	–
CNC[C@H](O)[C@H](c1ccccc1)n1c(C)cc2ccccc21 (racemic)	–	–	45%	–
O[C@@H](CNCC1CCCCC1)[C@H](c1ccccc1)n1ccc2ccccc21 (racemic)	2830 nM	–	41%	–
CNC[C@@H](O)[C@H](c1ccccc1)n1ccc2ccccc21 [listing 2 of 2 here]	–	19%	–	Activity [11]: inactive; Activity [12]: inactive; Activity [13]: inactive; Activity [14]: inactive
CCNC[C@H](O)[C@H](c1ccccc1)n1ccc2ccccc21 (racemic)	298 nM	–	–	Ratio IC50 (MDCK-Net6): 0.2; IC50 [3]: 1200 nM
CNC[C@@H](O)[C@H](c1ccccc1)n1ccc2ccccc21 (stereo in doubt) [listing 1 of 2 here]	–	7%	–	–
CNC[C@@H](O)[C@H](c1ccccc1)n1ccc2ccccc21 (stereo in doubt) [listing 2 of 2 here]	126 nM	–	–	–
CNC[C@H](O)[C@@H](c1ccccc1)n1ccc2ccccc21 [listing 2 of 2 here]	–	18%	–	–
CNC[C@H](O)[C@@H](c1ccccc1)n1ccc2ccccc21 (stereo in doubt) [listing 1 of 2 here]	74 nM	–	–	–
Cc1cn([C@@H](c2ccccc2)[C@@H](O)CN)c2ccccc12 (racemic)	299 nM	6%	–	Ratio IC50 (MDCK-Net6): 1; IC50 [3]: 321 nM
CNC[C@H](O)[C@@H](c1ccccc1)n1ccc2ccccc21 (stereo in doubt) [listing 2 of 2 here]	–	4%	–	–
CCNC[C@H](O)[C@H](c1ccccc1)n1ccc2cc(F)ccc21 (racemic)	–	–	11%	–
O[C@@H](CN1CCOCC1)[C@H](c1ccccc1)n1ccc2ccccc21 (racemic)	–	–	18%	–
O[C@@H](CNCc1ccccc1)[C@H](c1ccccc1)n1ccc2ccccc21 (racemic)	–	–	26%	–
